{
  "source": "patent US20050148069A1",
  "about": "“IGF-1 instructs multipotent adult CNS neural stem cells to an oligodendroglial lineage” (priority 2003, published 2005)",
  "key": {"[1]": {"test_system": "adult hippocampus-derived neural progenitor cells", "assay": "cell death by live staining with propidium iodide and Hoechst 33342", "format": "cell-based, rat", "details": "500 ng/ml IGF-I", "protocol": "We first directly measured the effect of IGF-I on cell survival. We asked whether a selective decrease in the death of oligodendrocytes (and/or oligodendrocyte progenitors) could explain the net increase in number of oligodendrocytes (defined by the expression of RIP, a marker of both immature and mature oligodendrocytes). […] To quantify cell death of the progeny of neural progenitor cells, living cultures were stained with propidium iodide (1 μg/ml), which stains dead cells, and Hoechst 33342 (1 μg/ml), which stains live and dead cells. Staining of live, rather than fixed, cultures was used to avoid underestimating cell death due to possible detachment of dying and/or dead cells from culture substrates. […]\nCells were fixed with 4% paraformaldehyde, followed by immunocytochemical staining as described (Palmer et al., 1999). […] Quantification of cell phenotypes was with StereoInvestigator (MicroBrightfield Inc.); for each marker, 500-1000 cells were sampled systematically from standardized fields at 40×magnification. For quantification of live/dead cells, images were taken of cultures live-stained with propidum iodide (1 μg/ml; Molecular Probes) and Hoescht 33342 (1 μg/ml; Sigma) at 10×magnification, and cells were counted using Image-Pro (Media Cybernetics). […]"}, "[2]": {"test_system": "adult hippocampus-derived neural progenitor cells", "assay": "mathematical model of proliferation and differentiation rates", "parameters": "species or system rat", "details": "500 ng/ml IGF-I", "source_text": "Therefore, to separate the IGF-I effects on proliferation of progenitors from the instructive differentiation of progenitors to oligodendrocytes, we developed a mathematical model (as shown in FIG. 4A). This modeling approach has previously been used to quantify the effects of hippocampal astrocytes on the proliferation and neuronal differentiation of adult neural progenitor cells (Song et al., 2002). To distinguish the proliferation and differentiation rates, the model required that we count the number of RIP+ cells that were either positive or negative for BrdU at each time point. […] Because of this finding, we decided to separate the proliferation rate of RIP− (defined as α) and RIP+ cells (γ), as well as the differentiation rate (β) of RIP− to RIP+ cells. The overall death rate measured by Hoechst dye in live cultures could not be experimentally separated into a RIP− death rate (δ) and a RIP+ death rate (ε) (Song et al., 2002). Therefore, the model was bounded by the two possibilities that all cell death is from only RIP− or only RIP+ cells. We also considered the more probable assumption that the death rates for both RIP− and RIP+ cells were equal.\nSix equations were used to derive values for these rates. The first equation describes the differential gain in RIP− cells: dN^RIP−/dt=(α−δ)N^RIP−−βN^RIP− (b 1) where N^RIP−is the number of RIP− cells, α is the proliferation rate of RIP− cells (per 12-h interval), β is the differentiation rate of RIP− into RIP+ cells, and δ is the death rate of RIP− cells. Similarly for RIP+ cells, dN^RIP+/dt=(γ−ε)N^RIP++βN^RIP− (2) where N^RIP+ is the number of RIP+ cells, […] is a proliferation rate of RIP+ cells, and ε is the RIP+ death rate. The sum of (1) and (2) is the equation defining total cell count: dN^Total/dt=(α−δ)N^RIP−+(γ−ε)N^RIP+ (3)\nThe time-course experiments were performed in 12-h intervals, allowing for measurement of the proliferation and differentiation rates at each 12-h time interval—αi is the proliferation rate of RIP− cells at time ‘i’ and so forth. […]"}},
  "data": [
    {"substance": "IGF-I: human recombinant IGF-I (R&D Systems), growth factor polypeptide", "values": [
      {"measurement": "percentage of dead/dying cells", "setting": "[1]; every 12 hours up to 48 h", "value": "relatively small percentage of dead/dying cells"},
      {"measurement": "change in the percentage of cells that died between time points", "setting": "[1]; one-way ANOVA", "value": "no significant change"},
      {"measurement": "differentiation rate (β) of RIP− to RIP+ cells", "setting": "[2]", "value": "increase in differentiation rate"},
      {"measurement": "proliferation rate (γ) of RIP+ cells", "setting": "[2]", "value": "increase in the proliferation rate"},
      {"measurement": "proliferation rate of RIP− cells (α)", "setting": "[2]", "value": "no increase in the proliferation rate of RIP− cells"}
    ]}
  ]
}
